Assay results from ChEMBL document CHEMBL3046230, “Diversity and antifeedant activity of diterpenes from Turkish species of Sideritis” (2000).

Legend:
Assay type in all cases: functional
Spodoptera frugiperda = assay: Antifeedant activity against Spodoptera frugiperda (fall armyworm) assessed as feeding index at 100 ppm after 18 hr relative to control
Spodoptera littoralis [1] = assay: Phagostimulant activity against Spodoptera littoralis assessed as feeding index at 100 ppm after 18 hr relative to control
Spodoptera littoralis [2] = assay: Antifeedant activity against Spodoptera littoralis assessed as feeding index at 100 ppm after 18 hr relative to control

## CC(=O)OC[C@]1(C)[C@H]2C[C@H](O)[C@]34C=C(C)[C@H](CC[C@H]3[C@]2(C)CC[C@H]1O)C4
Spodoptera frugiperda
  AFI: 12%

## C=C1C[C@]23C[C@H]1CC[C@H]2[C@]1(C)CC[C@@H](O)[C@](C)(CO)[C@H]1C[C@@H]3O
Spodoptera littoralis [1]
  FI: 52
Spodoptera frugiperda
  AFI: 21%

## CC1=C[C@]23C[C@H]1CC[C@H]2[C@]1(C)CCC[C@](C)(CO)[C@H]1C[C@@H]3O
Spodoptera littoralis [2]
  AFI: 27%
Spodoptera frugiperda
  AFI: 13%

## C=C1C[C@@]23C[C@@H]1CC[C@H]2[C@]1(C)CC[C@@H](O)[C@](C)(COC(C)=O)[C@@H]1C[C@@H]3O [LINEAROL]
Spodoptera frugiperda
  AFI: 8%

## C[C@]1(CO)CCC[C@]2(C)[C@H]1C[C@H](O)[C@@]13C[C@@H](CC[C@@H]21)[C@]1(C)O[C@@H]13 [SIDEROXOL]
Spodoptera littoralis [2]
  AFI: 9%
Spodoptera frugiperda
  AFI: 54%
